# Measured values: patent publication US11826403B2, “Target for diabetes treatment and prevention” (UNIVERSITE DE STRASBOURG, priority 2014, dated 2023)
# How the values were obtained:
# [1] = system: mature adipocytes; assay: 2-NBDG glucose absorption in mature adipocytes infected with min-αPKC lentiviral particles; assay type: cell-based, human; conditions: n=8 per group
# Protocol: Cell culture. Human white visceral preadipocytes (Catalog #: C-12732; PromoCell) and human mesenchymal stem cells (Catalog #: C-12974; PromoCell) derived from healthy bone marrow were purchased. The preadipocytes were seeded according to manufacturer's protocol and cultured in the Preadipocyte growth medium (Catalog #: C-27410; PromoCell) to confluence. One day before inducing terminal adipogenesis, the cells were infected with specific lentiviral particles consisted of a pool of 3 shRNAs target-specific constructs purchased from Santa Cruz Biotechnology and on the next day, adipogenic differentiation was induced by changing the medium to the Preadipocyte Differentiation Medium (Catalog #: C-27436; PromoCell) for 2 days. After the differentiation phase, the medium was finally changed to the Adipocyte Nutrition medium (Catalog #: C-27438; PromoCell). For the culture without insulin, Adipocyte Basal Medium (Catalog #: C-2431; PromoCell) without insulin was complemented with 5 g/L of deoxyglucose, 8 μg/mL d-Biotin, 400 ng/mL Dexamethasone. For the hMSCs, they were cultured in Mesenchymal Stem Cell Growth Medium (Catalog #: C-28010; PromoCell) to confluence. hMSCs were transfected with specific siRNAs as described above and on the next day adipogenic differentiation was induced by changing the medium to the MSC Adipogenic Differentiation Medium (Catalog #: C28011; Promocell). […]
# [2] = system: human mature adipocytes; assay: 2-NBDG absorption in control and ALMS1-silenced mature adipocytes; assay type: cell-based; conditions: for 2-NBDG absorption: ALMS1-silenced adipocytes, 30 min stimulation
# Protocol: Cell culture. Human white visceral preadipocytes (Catalog #: C-12732; PromoCell) and human mesenchymal stem cells (Catalog #: C-12974; PromoCell) derived from healthy bone marrow were purchased. The preadipocytes were seeded according to manufacturer's protocol and cultured in the Preadipocyte growth medium (Catalog #: C-27410; PromoCell) to confluence. One day before inducing terminal adipogenesis, the cells were infected with specific lentiviral particles consisted of a pool of 3 shRNAs target-specific constructs purchased from Santa Cruz Biotechnology and on the next day, adipogenic differentiation was induced by changing the medium to the Preadipocyte Differentiation Medium (Catalog #: C-27436; PromoCell) for 2 days. After the differentiation phase, the medium was finally changed to the Adipocyte Nutrition medium (Catalog #: C-27438; PromoCell). For the culture without insulin, Adipocyte Basal Medium (Catalog #: C-2431; PromoCell) without insulin was complemented with 5 g/L of deoxyglucose, 8 μg/mL d-Biotin, 400 ng/mL Dexamethasone. For the hMSCs, they were cultured in Mesenchymal Stem Cell Growth Medium (Catalog #: C-28010; PromoCell) to confluence. hMSCs were transfected with specific siRNAs as described above and on the next day adipogenic differentiation was induced by changing the medium to the MSC Adipogenic Differentiation Medium (Catalog #: C28011; Promocell).
# Following ALMS1 silencing in 2-week-old mature adipocytes, glucose absorption capacity was assessed using labelled glucose analogue (2-NBDG). In the absence of insulin stimulation, no 2-NBDG uptake could be detected in ALMS1-silenced and control mature adipocytes (FIG. 2A). […] Further to reduced glucose absorption in ALMS1-silenced adipocytes, the inventors observed a reduction in intracellular triglycerides (TG) in these cells a week later (FIGS. 2C-D). […]
# [3] = system: human mature adipocytes; assay: Electron microscopy of vesicle swelling and fusion with the plasma membrane; assay type: cell-based
# Excerpt: (§1) The inventors next tested whether acidifying ALMS1-silenced adipocytes using Nigericin (NIG.), an electroneutral K^+/H^+ exchange ionophore known to cause osmotic swelling of the GSVs would bypass the Alms1-associated defect in GLUT4 fusion and glucose absorption.
# [4] = system: Alms1foz/foz mice; assay: Insulin tolerance test (ITT) in Alms1foz/foz mice; assay type: in vivo, mouse
# Excerpt: Six month old obese and young (<60 days old) nonobese Alms1^foz/foz mice and wildtype (WT) littermates were used to investigate what primary metabolic impairment leads Alms1^foz/foz mice to develop T2DM. Six month old Alms1^foz/foz mice were obese with an average body weight of 45.5 g±1.7 g compared to 26.4 g±1.3 g for WT littermates (FIG. 1A) and as previously shown had fasting hyperglycaemia and impaired glucose tolerance with elevated HOMA scores. […] (FIG. 1C). Obesity of Alms1^foz/foz mice was due to severe adipocyte hypertrophy (FIG. 1B) rather than the adipocyte hyperplasia more typically seen in obese BBS mice. To determine what the primary defect was that was causing the glucose intolerance in Alms1^foz/foz mice, young lean Alms1^foz/foz mice were studied to remove the confounding effect of obesity on insulin responsiveness. […]
# Biochemical tests. […] Tail blood was obtained and the plasma glucose was determined for each mouse using a glucometer (Optium Xceed, Abbott, USA) and blood glucose test strips (Optium point of care, Abbott, USA) at 0, 15, 30 and 60 min after insulin injection. […] Plasma glucose was determined for each mouse using a glucometer with sampling via tail vein at 0, 15, 30, 60 and 120 min after glucose injection. […] The homeostasis model assessment of insulin resistance (HOMA-IR) index was calculated using individual mouse fasting insulin and fasting glucose levels. […]
# [5] = system: human mature adipocytes; assay: Acridine orange acidification of adipocytes (time lapse); assay type: cell-based
# Excerpt: While AKT-phosphorylation of TBC1D4 has been known to in some way lead to GLUT4 trafficking, the ultimate GSV-PM fusion step is an insulin regulated non-AKT dependent event that requires osmotic swelling of the GSVs under the action of the vATPase H^+ pump. However, knowledge of the actual signal and mechanism for activation of the H^+ pump by insulin was missing. The inventors tested if ALMS1 inactivation could prevent the acidification of the GSVs and therefore the chemo-osmotic-mediated release of GLUT4 to the PM using the acidotrophic dye, acridine orange, which emits a green fluorescence at low concentration and an orange-red fluorescence at high concentrations in the lysosomes in which acridine orange is protonated and sequestered. In absence of insulin, no orange-red fluorescence was detected in the adipocytes.
# as §1
# [6] = system: ALMS1-silenced adipocytes; assay: Immunodetection of GLUT4 / TBC1D4 at the plasma membrane in ALMS1-silenced adipocytes; assay type: cell-based, human; conditions: NIG-treated ALMS1-silenced adipocytes
# Protocol: Western blots and immunofluorescence microscopy. Male Alms1^foz/foz and WT littermates were anaesthetized. The following insulin sensitive tissues: liver, heart, muscle and adipose tissue were harvested and directly placed in RIPA buffer (Tris 50 mM, NaCl 150 mM, 0.1% SDS, 1% Triton-X100) supplemented with Complete mini protease inhibitor cocktail and PhosSTOP phosphatase inhibitor cocktail (Roche, Switzerland). Samples were sonicated and centrifuged […] at 17 000 g, 4° C. […]. Protein concentration assayed with BCA assay (Thermo Fisher Scientific, USA). Cellular proteins from cells were obtained by trichloroacetic acid precipitation and immunoblot analyses were performed using 30-50 μg total protein. Specific antibody binding was visualized using the SuperSignal® West Femto Maximum Sensitivity Substrate (catalog #: Lf145954, Pierce) on a BioRad Versadoc™ Imaging System or ImageQuant LAS 4000 imager (GE Healthcare, UK). Nonspecific proteins stained with Ponceau S were used as loading controls to normalize the signal obtained after specific immunodetection of the protein of interest using the Bio-Rad Quantity One program. For immunofluorescence experiments, the cells were seeded on permanox 8-wells Lab-Tek II Chamber Slide (Catalog #: 177445; NUNC). Cells were treated as indicated. […]
# [7] = system: ALMS1-silenced adipocytes; assay: Intracellular triglyceride (TG) filling of ALMS1-silenced adipocytes; assay type: cell-based, human; conditions: 24-hours post NIG treatment
# Protocol: Fluorescence measurement. The preadipocytes were cultured in a 96 well plate and 12 wells infected with the either ALMS1 shRNA lentiviral particles or CTRL shRNA lentiviral particles and differentiated the next day into mature adipocytes. 3 weeks later, the intracellular triglycerides were stained with AdipoRed staining following the manufacturer's procedure and the fluorescence was measured on a Tecan Infinite 200 quad4 monochromator (Tecan, Lyon, France) at a wavelength of 520 nm. The generated data were then analyzed using the Tecan Magellan Data Analysis software using as blank unstained adipocytes. The inventors next tested whether acidifying ALMS1-silenced adipocytes using Nigericin (NIG.), an electroneutral K^+/H^+ exchange ionophore known to cause osmotic swelling of the GSVs would bypass the Alms1-associated defect in GLUT4 fusion and glucose absorption.
# [8] = control human mature adipocytes
Compound,"2-NBDG absorption, increase compare to control ([1]; absence of INS, control lentiviral particles as comparator) [times]",2-NBDG absorption versus control ([1]; presence of INS),2-NBDG absorption [2],"2-NBDG uptake ([2]; control human mature adipocytes, insulin stimulation)",vesicular swelling and fusion with the PM ([3]; ALMS1-silenced adipocytes),vesicular swelling and fusion with the PM ([3]; control adipocytes),insulin responsiveness (ITT) ([4]; 2 months old nonobese Alms1foz/foz males),"glycaemia response to insulin administration (ITT) ([4]; six month old obese Alms1foz/foz mice, doses as high as 20 U/kg)",acidification (acridine orange orange-red fluorescence) ([5]; ALMS1-silenced adipocytes),"acidification (acridine orange orange-red fluorescence) [5, 8]",GLUT4 fusion with the PM [6],TG-filling of adipocytes [7]
"min-αPKC-FLAG: minimum ALMS1-interacting domain of αPKC (SEQ ID NOs: 14 and 15) with Flag-TAG, expressed from a lentiviral vector",3.5,no significant difference,,,,,,,,,,
insulin,,,little effect,increased 2-NBDG uptake,not in ALMS1-silenced adipocytes,swelling of the vesicles,significantly reduced insulin responsiveness,unresponsive,loss of insulin-mediated acidification,rapid appearance of red color,,
CO[C@@H]1C[C@@H](C[C@H]2CC[C@H](C)[C@H]([C@@H](C)C(=O)O)O2)O[C@]2(O[C@](C)([C@H]3CC[C@@](C)([C@@H]4O[C@@H]([C@H]5O[C@@](O)(CO)[C@H](C)C[C@@H]5C)C[C@@H]4C)O3)C[C@H]2C)[C@@H]1C [Nigericin],,,restore 2-NBDG absorption in the ALMS1-silenced adipocytes to levels seen in control cells,,induced vesicular swelling and fusion with the PM,induced vesicular swelling and fusion with the PM,,,rapid acidification,rapid acidification,restored GLUT4 fusion with the PM,restoration of TG-filling
